Data published in PubChem BioAssay (NCI).
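In this assay, cells in 96-well plates receive the compound at five concentrations for 48 hours. Endpoints are linearly interpolated between the surrounding concentrations. GI50 is the concentration that inhibits growth by half. Definition used: TGI = concentration required for complete inhibition of growth.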

Columns and labels:
Test in all cases: inhibition of tumour cell growth, NCI panel, 48 h
[1] = system: A549 NSCLC
[2] = system: COLO 205 colon
[3] = system: HCT-116 colon
[4] = system: HL-60(TB) leukemia
[5] = system: K-562 leukemia
[6] = system: NCI-H226 lung
[7] = system: RPMI-8226 leukemia
[8] = system: SK-MEL-2 melanoma
[9] = system: UACC-257 melanoma
[10] = system: UACC-62 melanoma

Row | SMILES | TGI [1] [µM] | TGI [2] [µM] | TGI [3] [µM] | TGI [4] [µM] | TGI [5] [µM] | TGI [6] [µM] | TGI [7] [µM] | TGI [8] [µM] | TGI [9] [µM] | TGI [10] [µM] | GI50 [1] [nM] | GI50 [2] [nM] | GI50 [3] [nM] | GI50 [4] [µM] | GI50 [5] [nM] | GI50 [6] [µM] | GI50 [7] [nM] | GI50 [8] [µM] | GI50 [9] [µM] | GI50 [10] [nM]
1 | Oc1cccnc1[Se] | > 100 | 35 | > 100 | > 100 | > 100 | > 100 | > 100 | > 100 | > 100 | > 100 |  |  |  |  |  |  |  |  |  | 
2 | Cc1ccc(NC(=O)CCc2cc(C(C)(C)C)nc(=S)[nH]2)cc1C | > 100 | > 100 | > 100 | > 100 | > 100 | > 100 | > 100 | > 100 | > 100 | > 100 |  |  |  |  |  |  |  |  |  | 
3 | CCCN1C(=O)N(CCC)C2C1NC(=S)N2/N=C/C=C/c1ccccc1OC (stereo not given) | > 100 | 9.09 | > 100 | 1.71 | > 100 | > 43.9 | 16.7 | > 63.4 | > 100 | 47 | 868 | 520 | 445 | 0.337 | 410 | 4.17 | 690 | 2.08 | 20.3 | 599
4 | Nc1nc(/C=C\c2ccc([N+](=O)[O-])s2)nc(N2CCCC2)n1 | 22.9 | 3.5 | 4.68 | 25.3 | 8.32 | 21.7 | 4.39 | 27.9 | 15.6 | 8.67 | 2970 | 524 | 1100 | 5.39 | 1830 | 3.32 | 1260 | 12.9 | 4.39 | 1430
5 | COc1ccc(Nc2nnc(-c3cc(O)ccc3O)s2)cc1 | > 50 | > 50 | > 50 | > 50 | > 50 | 39.9 | 21.1 | > 50 | > 50 | 20.8 | > 50000 | > 50000 | 21900 | 4.57 | 17600 | 11 | 8670 | 23.1 | > 50 | 9890
6 | C=CCCCCOc1ccccc1-c1cnc(OCCCCC=C)n1C | 21.9 | 11.1 | 11.8 | 7.14 | 14.1 | 28.5 | 14.1 | 5.88 | 12.9 | 17.4 | 3920 | 3230 | 2660 | 2.17 | 3740 | 13 | 3220 | 2.56 | 2.14 | 3930
7 | CN(C)CC1CCCC/C1=N/OC(=O)c1ccc(Cl)cc1 (stereo not given) | > 100 | > 100 | > 100 | > 100 | > 100 | > 100 | > 100 | > 100 | > 100 | > 100 |  |  |  |  |  |  |  |  |  | 
